The values below come from patent US8653089B2, “Heterocyclic compounds and methods of use” (F. Hoffmann-La Roche AG, priority 2011, dated 2014).

Bounds are passed on as bounds.

Assay [1] has as its system CD69 expression on CD20 positive cells in human whole blood stimulated by anti-IgM. Description: CD69 Whole Blood Assay. The class given is cell-based. The following applies: concentration decreasing by 50% the percent CD69 positive cells that are also CD20 positive, 20 hours. The source says: Human blood is obtained from healthy volunteers, with the following restrictions: 1 week drug-free, non-smokers. Blood (approximately 20 mls to test 8 compounds) is collected by venipuncture into Vacutainer tubes with sodium heparin.
Cynomolgus monkey blood is obtained courtesy of the LAT group from monkeys not previously exposed to, or after a washout period from, chemical dosing. Additional cyno blood draws may be collected during the course of pharmacokinetic or toxicology studies. Blood (25-30 mls for naïve monkeys or 3-4 mls from monkeys on studies requiring repeated draws) is collected by venipuncture into Vacutainer tubes with sodium heparin.
Solutions of Formula I compounds at 1000 or 2000 μM in PBS (20×), are diluted by three-fold serial dilutions in 10% DMSO in PBS for a nine point dose-response curve. An aliquot of 5.5 μl of each compound is added in duplicate to a 2 ml 96-well plate; 5.5 μl of 10% DMSO in PBS is added as control and no-stimulus wells. Human whole blood—HWB (100 μl) is added to each well. After mixing the plates are incubated at 37° C., 5% CO2, 100% humidity for 30 minutes. Goat F(ab′)2 anti-human IgM (10 μl of a 500 μg/ml solution, 50 μg/ml final) is added to each well (except the no-stimulus wells) with mixing and the plates are incubated for an additional 20 hours. At the end of the 20 hour incubation, samples are incubated with fluorescent labeled antibodies for 30 minutes, at 37° C., 5% CO2, 100% humidity. Include induced control, unstained and single stains for compensation adjustments and initial voltage settings. Samples are then lysed with Pharmingen Lyse according to the manufacturer's instructions. Samples are then transferred to a 96 well plate suitable to be run on the AMS 96 well system on the BD Calibur FACs machine. Data acquired and Mean Fluorescence Intensity values were obtained using Cell Quest Software. Results are initially analyzed by FACS analysis software (Flow Jo). […] The […] values are calculated by ActivityBase using Xlfit version 3, equation 201.

Assay [2] concerns the target T1, p110 delta (Homo sapiens, UniProt O00329).
T1 construct: purchased Upstate Group, Millipore; Dundee, UK
Description: PI3K isoform inhibition assay (fluorescence polarization), p110 delta. The settings on record: p110 delta binding IC50, selected compounds from Table 1. Format: biochemical. As for the experimental part: PI3K enzymatic activity was assayed by measuring the amount of product phosphatidylinositol 3,4,5-phosphate (PIP3) formed from substrate 4,5 phosphatidylinositol 4,5-phosphate (PIP2) using a fluorescence polarization displacement assay. The decrease in fluorescence polarization of a fluorescent PIP3 probe is measured as it is displaced from a PIP3-binding protein GRP-1detector by PI3K-catalyzed product. Assays were conducted in 384-well black Proxiplates in the presence of 10 mM Tris (pH 7.5), 50 mM NaCl, 4 mM MgCl2, 5% glycerol, 25 μM ATP, 10 μM PIP2 (Echelon Biosciences), 0.05% 3-[(3-cholamidopropyl)dimethylammonio]-1-propanesulfonate, 1 mM dithiothreitol, and 2% DMSO. The kinase reactions were initiated by the addition of 40 ng/mL p110α/p85α, 300 ng/mL p110β/p85α, 40 ng/mL p110γ, or 40 ng/mL p110δ/p85α (Upstate Group, Millipore; Dundee, UK), and 10 μM PIP2 (Echelon Biosciences) to the wells. The reactions were stopped at timepoints that yielded a fixed change in fluorescence polarization consistent with initial rate conditions (typically 30 minutes), by the addition of 12.5 mM EDTA, 100 nM GRP-1 detector, and 5 nM tetramethylrhodamine-labeled PIP3 (TAMRA-PIP3; Echelon Biosciences). After 60 minutes of incubation at room temperature to allow equilibration of labeled and unlabeled PIP3 binding, the parallel and perpendicular components of the fluorescence emissions from each sample were measured at an excitation wavelength of 530 nm and an emission wavelength of 590 nm using an Envision fluorescent plate reader with a rhodamine filter (PerkinElmer Life and Analytical Sciences; Wellesley, Mass.). The assay is capable of detecting 0.1-2.0 μM PIP3 product. The IC50 values were obtained by fitting the dose-dependent inhibition data to a 4-parameter equation using Assay Explorer software (MDL, San Ramon, Calif.). […]
(§1) Recombinant PI3K p110 isoforms alpha, beta, and delta may be prepared and purified according to US 2008/0275067 from recombinant PI3K heterodimeric complexes consisting of a p110 catalytic subunit and a p85 regulatory subunit overexpressed using the BAC-TO-BAC® HT baculovirus expression system (GIBCO/BRL), and then purified for use in biochemical assays. The four Class I PI 3-kinases are cloned into baculovirus vectors as follows:
p110 delta: A FLAG™-tagged (Eastman Kodak Co., U.S. Pat. No. 4,703,004; U.S. Pat. No. 4,782,137; U.S. Pat. No. 4,851,341) version of human p110.delta (Chantry et al., J. Biol. Chem. (1997) 272:19236-41) is subcloned using standard recombinant DNA techniques into the BamHI-XbaI site of the insect cell expression vector pFastbac HTb (Life Technologies, Gaithersburg, Md.), such that the clone is in frame with the His tag of the vector.

Assay [3] deals with T2, p110 alpha (Homo sapiens, UniProt P42336).
T2 construct: purchased Upstate Group, Millipore; Dundee, UK
Description: PI3K isoform inhibition assay, p110 alpha (delta/alpha selectivity). The class given is biochemical. The settings on record: delta/alpha selectivity ratio. On the procedure: PI3K enzymatic activity was assayed by measuring the amount of product phosphatidylinositol 3,4,5-phosphate (PIP3) formed from substrate 4,5 phosphatidylinositol 4,5-phosphate (PIP2) using a fluorescence polarization displacement assay. The decrease in fluorescence polarization of a fluorescent PIP3 probe is measured as it is displaced from a PIP3-binding protein GRP-1detector by PI3K-catalyzed product. Assays were conducted in 384-well black Proxiplates in the presence of 10 mM Tris (pH 7.5), 50 mM NaCl, 4 mM MgCl2, 5% glycerol, 25 μM ATP, 10 μM PIP2 (Echelon Biosciences), 0.05% 3-[(3-cholamidopropyl)dimethylammonio]-1-propanesulfonate, 1 mM dithiothreitol, and 2% DMSO. The kinase reactions were initiated by the addition of 40 ng/mL p110α/p85α, 300 ng/mL p110β/p85α, 40 ng/mL p110γ, or 40 ng/mL p110δ/p85α (Upstate Group, Millipore; Dundee, UK), and 10 μM PIP2 (Echelon Biosciences) to the wells. The reactions were stopped at timepoints that yielded a fixed change in fluorescence polarization consistent with initial rate conditions (typically 30 minutes), by the addition of 12.5 mM EDTA, 100 nM GRP-1 detector, and 5 nM tetramethylrhodamine-labeled PIP3 (TAMRA-PIP3; Echelon Biosciences). After 60 minutes of incubation at room temperature to allow equilibration of labeled and unlabeled PIP3 binding, the parallel and perpendicular components of the fluorescence emissions from each sample were measured at an excitation wavelength of 530 nm and an emission wavelength of 590 nm using an Envision fluorescent plate reader with a rhodamine filter (PerkinElmer Life and Analytical Sciences; Wellesley, Mass.). The assay is capable of detecting 0.1-2.0 μM PIP3 product. The IC50 values were obtained by fitting the dose-dependent inhibition data to a 4-parameter equation using Assay Explorer software (MDL, San Ramon, Calif.).
Alternatively, inhibition of PI3K was determined in a radiometric assay using purified, recombinant enzyme and ATP at a concentration of 1 uM. The Formula I compound was serially diluted in 100% DMSO. The kinase reaction was incubated for 1 h at room temperature, and the reaction was terminated by the addition of PBS. IC50 values were subsequently determined using sigmoidal dose-response curve fit (variable slope).
The same protocol may be used to establish IC50 values for p110α (alpha) PI3K binding.
as §1
p110 alpha: Similar to the method used for p110 delta, described above, a FLAG™-tagged version of p110 alpha (Volinia et al (1994) Genomics, 24(3):427-77) was subcloned in BamH1-HindIII sites of pFastbac HTb (Life Technologies) such that the clone was in frame with the His tag of the vector.

T1 sequence (O00329 whole entry): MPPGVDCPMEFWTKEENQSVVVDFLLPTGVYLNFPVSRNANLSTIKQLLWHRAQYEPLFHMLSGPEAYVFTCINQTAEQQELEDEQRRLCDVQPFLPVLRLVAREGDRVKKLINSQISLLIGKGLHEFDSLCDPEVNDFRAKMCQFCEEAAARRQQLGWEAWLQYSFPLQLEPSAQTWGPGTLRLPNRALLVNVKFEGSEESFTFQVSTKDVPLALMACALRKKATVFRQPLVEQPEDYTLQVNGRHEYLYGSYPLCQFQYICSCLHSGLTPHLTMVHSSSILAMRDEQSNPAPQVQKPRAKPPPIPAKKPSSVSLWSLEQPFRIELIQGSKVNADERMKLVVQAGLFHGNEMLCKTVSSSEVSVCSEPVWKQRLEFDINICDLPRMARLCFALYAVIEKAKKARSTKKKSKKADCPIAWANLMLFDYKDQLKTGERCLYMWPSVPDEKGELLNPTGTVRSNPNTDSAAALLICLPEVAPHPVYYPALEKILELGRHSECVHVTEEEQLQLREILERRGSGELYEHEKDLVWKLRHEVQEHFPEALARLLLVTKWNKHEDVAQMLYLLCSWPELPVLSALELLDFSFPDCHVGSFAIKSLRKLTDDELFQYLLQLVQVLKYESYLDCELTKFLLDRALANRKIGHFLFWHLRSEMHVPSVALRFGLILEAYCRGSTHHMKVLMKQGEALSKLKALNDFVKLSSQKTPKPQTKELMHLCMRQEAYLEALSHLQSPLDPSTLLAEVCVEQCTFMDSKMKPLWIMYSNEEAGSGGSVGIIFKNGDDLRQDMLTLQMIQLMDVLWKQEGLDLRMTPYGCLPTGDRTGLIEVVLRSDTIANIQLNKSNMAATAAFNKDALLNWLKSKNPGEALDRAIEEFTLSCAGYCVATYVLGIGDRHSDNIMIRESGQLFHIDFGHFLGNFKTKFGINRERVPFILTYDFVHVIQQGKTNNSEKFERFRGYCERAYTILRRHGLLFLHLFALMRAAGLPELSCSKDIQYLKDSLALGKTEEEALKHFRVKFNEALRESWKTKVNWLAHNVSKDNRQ
T1 sequence (P27986 whole entry partner): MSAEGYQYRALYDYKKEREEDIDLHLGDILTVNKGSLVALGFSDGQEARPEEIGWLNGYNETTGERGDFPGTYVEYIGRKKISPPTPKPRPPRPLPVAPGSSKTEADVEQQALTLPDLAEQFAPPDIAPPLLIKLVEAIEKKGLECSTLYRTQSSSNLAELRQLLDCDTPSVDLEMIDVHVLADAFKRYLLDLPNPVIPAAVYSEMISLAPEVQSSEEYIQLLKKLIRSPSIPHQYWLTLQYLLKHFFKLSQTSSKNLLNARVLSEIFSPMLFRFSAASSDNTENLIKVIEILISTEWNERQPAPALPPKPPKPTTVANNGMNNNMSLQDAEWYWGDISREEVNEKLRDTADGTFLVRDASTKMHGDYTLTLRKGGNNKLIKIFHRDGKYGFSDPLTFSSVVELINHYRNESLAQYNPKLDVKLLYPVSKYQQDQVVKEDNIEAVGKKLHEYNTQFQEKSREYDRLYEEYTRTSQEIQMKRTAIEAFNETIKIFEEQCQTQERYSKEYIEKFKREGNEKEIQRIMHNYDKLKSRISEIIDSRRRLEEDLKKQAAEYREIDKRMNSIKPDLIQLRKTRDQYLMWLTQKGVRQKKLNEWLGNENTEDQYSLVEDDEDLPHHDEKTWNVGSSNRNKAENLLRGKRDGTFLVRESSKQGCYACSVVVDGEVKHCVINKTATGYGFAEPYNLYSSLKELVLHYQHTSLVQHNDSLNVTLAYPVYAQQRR
T2 sequence (P42336 whole entry): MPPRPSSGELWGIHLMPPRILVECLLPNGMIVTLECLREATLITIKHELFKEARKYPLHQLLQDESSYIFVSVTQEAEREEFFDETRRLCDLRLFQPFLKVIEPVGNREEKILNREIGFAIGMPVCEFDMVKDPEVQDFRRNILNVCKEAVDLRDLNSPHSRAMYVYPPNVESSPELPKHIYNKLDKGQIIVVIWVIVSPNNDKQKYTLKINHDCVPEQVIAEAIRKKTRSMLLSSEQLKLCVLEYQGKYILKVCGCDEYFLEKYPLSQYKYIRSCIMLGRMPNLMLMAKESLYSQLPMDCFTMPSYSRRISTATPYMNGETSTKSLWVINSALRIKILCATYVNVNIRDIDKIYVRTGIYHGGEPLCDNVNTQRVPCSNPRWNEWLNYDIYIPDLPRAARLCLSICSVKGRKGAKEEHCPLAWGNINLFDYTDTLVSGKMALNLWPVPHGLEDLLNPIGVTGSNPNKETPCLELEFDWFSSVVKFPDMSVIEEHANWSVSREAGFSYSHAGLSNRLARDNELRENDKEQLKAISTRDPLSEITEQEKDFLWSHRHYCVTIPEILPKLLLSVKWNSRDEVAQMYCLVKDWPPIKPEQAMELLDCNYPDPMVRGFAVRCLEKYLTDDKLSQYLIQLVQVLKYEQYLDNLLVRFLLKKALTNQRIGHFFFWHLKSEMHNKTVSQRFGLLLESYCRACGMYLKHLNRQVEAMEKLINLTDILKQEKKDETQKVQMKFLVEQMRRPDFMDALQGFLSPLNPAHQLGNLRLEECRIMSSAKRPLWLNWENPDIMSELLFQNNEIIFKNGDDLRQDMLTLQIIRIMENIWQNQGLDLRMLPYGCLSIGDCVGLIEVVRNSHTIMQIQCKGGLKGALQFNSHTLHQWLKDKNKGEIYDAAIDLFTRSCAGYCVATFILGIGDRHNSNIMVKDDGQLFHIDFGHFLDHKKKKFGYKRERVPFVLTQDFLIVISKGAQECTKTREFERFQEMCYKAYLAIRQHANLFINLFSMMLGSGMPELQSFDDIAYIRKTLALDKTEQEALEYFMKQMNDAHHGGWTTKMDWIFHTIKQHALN
T2 sequence (P27986 whole entry partner): as the sequence (P27986 whole entry partner) above

For orientation: IC50 means the concentration needed to halve the response being measured. Higher therefore signals weaker potency in that assay. The compound `C[C@H](Nc1ncnc2[nH]cnc12)c1nc2cccc(Cl)c2n1-c1ccccc1` [Example 138, (S)—N-(1-(7-chloro-1-phenyl-1H-benzo[d]imidazol-2-yl)ethyl)-9H-purin-6-amine] returned an IC50 in assay [1] of 87.6 nM. With `CC(=O)N1CCC(n2c([C@H](C)Nc3ncnc4[nH]cnc34)nc3ccccc32)CC1` [Example 115, (S)-1-(4-(2-(1-(9H-purin-6-ylamino)ethyl)-1H-benzo[d]imidazol-1-yl)piperidin-1-yl)ethanone], the IC50 in assay [2] is 13.7 nM. In addition, the “IC50 p110 alpha/IC50 p110 delta (greater than or equal to, ≧)” value (from here on “IC50 p110 alpha/IC50 p110 delta”) in assay [3] was at least 153. In the case of `Nc1ncnc2c1ncn2Cc1nc2ccccc2n1-c1ccccc1` [Example 106, 9-((1-phenyl-1H-benzo[d]imidazol-2-yl)methyl)-9H-purin-6-amine], the IC50 in assay [2] is 189 nM. Also, the “IC50 p110 alpha/IC50 p110 delta” value in assay [3] is at least 11. In assay [2], `CC[C@H](Nc1ncnc2[nH]cnc12)c1nc2ccccc2n1-c1ccccc1` [Example 119, (S)—N-(1-(1-phenyl-1H-benzo[d]imidazol-2-yl)propyl)-9H-purin-6-amine] displayed an IC50 of 1.59 nM. The “IC50 p110 alpha/IC50 p110 delta” value in assay [3] is at least 1320. On to `C[C@H](Nc1ncnc2[nH]cnc12)c1nc2ccccc2n1C1CCN(C2COC2)CC1` [Example 129, (S)—N-(1-(1-(1-(oxetan-3-yl)piperidin-4-yl)-1H-benzo[d]imidazol-2-yl)ethyl)-9H-purin-6-amine], for which the IC50 in assay [2] was 63.4 nM. Moreover, the “IC50 p110 alpha/IC50 p110 delta” value in assay [3] is listed as at least 33. Regarding `Nc1ncnc2c1ccn2Cc1nc2ccccc2n1-c1ccccc1` [Example 139, 7-((1-phenyl-1H-benzo[d]imidazol-2-yl)methyl)-7H-pyrrolo[2,3-d]pyrimidin-4-amine], in assay [2], the IC50 was determined as 302 nM. The compound `CC(Nc1ncnc2[nH]cnc12)c1oc2ccccc2c1-c1ccccc1` (stereo not shown) [Example 103, N-(1-(3-phenylbenzofuran-2-yl)ethyl)-9H-purin-6-amine] yielded an IC50 in assay [2] of 33 nM. In addition, in assay [3], the “IC50 p110 alpha/IC50 p110 delta” value is at least 64. As to `C[C@H](Nc1ncnc2sccc12)c1nc2ccccc2n1-c1ccccc1` [Example 143, (S)—N-(1-(1-phenyl-1H-benzo[d]imidazol-2-yl)ethyl)thieno[2,3-d]pyrimidin-4-amine], the IC50 in assay [2] amounted to 87.9 nM. Also, the “IC50 p110 alpha/IC50 p110 delta” value in assay [3] is on record as at least 24.

`CC[C@H](Nc1ncnc2nc[nH]c12)c1nc2ccc(F)cc2n1-c1ccccc1` [Example 160, (S)—N-(1-(6-fluoro-1-phenyl-1H-benzo[d]imidazol-2-yl)propyl)-7H-purin-6-amine] came in with an IC50 in assay [1] of 179 nM. That is a sub-micromolar value. For the compound `Cc1nn(Cc2nc3ccccc3n2-c2ccccc2)c2ncnc(N)c12` [Example 142, 3-methyl-1-((1-phenyl-1H-benzo[d]imidazol-2-yl)methyl)-1H-pyrazolo[3,4-d]pyrimidin-4-amine], the IC50 in assay [2] was found to be 278 nM.

As to `C[C@H](Nc1ncnc2[nH]cnc12)c1nc2cccnc2n1-c1ccccc1` [Example 114, (S)—N-(1-(3-phenyl-3H-imidazo[4,5-b]pyridin-2-yl)ethyl)-9H-purin-6-amine], the IC50 in assay [2] came to 20.1 nM; in assay [1] it was 83.4 nM. The “IC50 p110 alpha/IC50 p110 delta” value in assay [3] is recorded as at least 104.

With `CC(Nc1ncnc2[nH]cnc12)c1nc2ccccc2n1-c1ccccc1` (racemic) [Example 102, N-(1-(1-phenyl-1H-benzo[d]imidazol-2-yl)ethyl)-9H-purin-6-amine], the IC50 in assay [2] came out at 9.1 nM. The “IC50 p110 alpha/IC50 p110 delta” value in assay [3] is recorded as at least 230.

With `C[C@H](Nc1ncnc2[nH]cnc12)c1nc2c(Cl)cccc2n1-c1ccccc1` [Example 120, (S)—N-(1-(4-chloro-1-phenyl-1H-benzo[d]imidazol-2-yl)ethyl)-9H-purin-6-amine], the IC50 in assay [2] turned out to be 4.46 nM. Further, the “IC50 p110 alpha/IC50 p110 delta” value in assay [3] is reported as at least 470. As to `C[C@H](Nc1ncnc2[nH]cnc12)c1nc2ccccc2n1C1CCCOC1` (stereo partly drawn) [Example 128, N-((1S)-1-(1-(tetrahydro-2H-pyran-3-yl)-1H-benzo[d]imidazol-2-yl)ethyl)-9H-purin-6-amine], in assay [2], the IC50 came to 36.2 nM. The “IC50 p110 alpha/IC50 p110 delta” value in assay [3] is listed as at least 58. `CC(Nc1ncnc2[nH]cnc12)c1sc2ccccc2c1-c1ccccc1` (stereo not shown) [Example 101, N-(1-(3-phenylbenzo[b]thiophen-2-yl)ethyl)-9H-purin-6-amine] came in with an IC50 in assay [2] of 52.3 nM. The “IC50 p110 alpha/IC50 p110 delta” value in assay [3] was at least 40. In the case of `C[C@H](Nc1ncnc2[nH]cnc12)c1nc2cccc(F)c2n1-c1ccccc1` [Example 124, (S)—N-(1-(7-fluoro-1-phenyl-1H-benzo[d]imidazol-2-yl)ethyl)-9H-purin-6-amine], the IC50 in assay [1] was found to be 67.1 nM.
